Assay results from patent US20230085307A1, “PYRIDAZINONE COMPOUND AND HERBICIDE” (NISSAN CHEMICAL CORPORATION, priority 2019, published 2023).

What was measured:
late watergrass = assay: Test Example 2: herbicidal activity, application during weed generation under submerged conditions (Table 17, symbol A); assay type: in vivo, late watergrass (Echinochloa oryzicola); conditions: AAH 320 g/ha; application during weed generation, submerged conditions
Outline: (§1)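 Herbicide emulsion, diluted with water to the chosen amount, is applied onto 4 cm floodwater over alluvial soil where the weeds were co-sown and raised at 25–30° C. Application timing: 1–2 leaves. Assessment: three weeks afterwards.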

southern crabgrass [1] = assay: Test Example 5: herbicidal effect by foliage application, plastic box (Table 20, symbol F); assay type: in vivo, southern crabgrass (Digitaria ciliaris); conditions: foliage application, AAH 320 g/ha, three weeks after application
Outline: (§2)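 Foliar spray test: emulsion formulation diluted in water to a set application rate, sprayed onto 14-day-old plants raised in diluvial soil at 25° C to 30° C under glass. Both herbicidal effect and crop effect rated visually three weeks later.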

redroot pigweed [2] = assay: Test Example 5: herbicidal effect by foliage application, plastic box (Table 20, symbol N); assay type: in vivo, redroot pigweed (Amaranthus retroflexus); conditions: foliage application, AAH 320 g/ha, three weeks after application
Outline: as §2

rice flat sedge = assay: Test Example 3: herbicidal effect by foliage application, Wagner pot (Table 18, symbol E); assay type: in vivo, rice flat sedge (Cyperus iria); conditions: 320 g/ha
Outline: (§3)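 Plants were sown in alluvial soil held under 0.1–0.5 cm standing water and grown 14 days in a greenhouse at 25–30 °C. An emulsifiable formulation, water-diluted to the set dose, was then sprayed onto the foliage, and effects were scored three weeks later using previously defined criteria.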

green foxtail = assay: Test Example 4: herbicidal effect by soil treatment (Table 19, symbol G); assay type: in vivo, green foxtail (Setaria viridis); conditions: AAH 320 g/ha
Outline: (§4)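 Herbicidal effect was rated 3 weeks after treatment, using the scoring criteria of an earlier test. The compound, formulated as an emulsion and diluted in water to a set herbicide amount, had been sprayed uniformly on soil over freshly sown seeds. Growth took place in a greenhouse at 25° C. to 30° C.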

barnyard grass [3] = assay: Test Example 5: herbicidal effect by foliage application, plastic box (Table 20, symbol H); assay type: in vivo, barnyard grass (Echinochloa crus-galli); conditions: foliage application, AAH 320 g/ha, three weeks after application
Outline: as §2

lambsquarters [4] = assay: Test Example 5: herbicidal effect by foliage application, plastic box (Table 20, symbol O); assay type: in vivo, lambsquarters (Chenopodium album); conditions: foliage application, AAH 320 g/ha, three weeks after application
Outline: as §2

southern crabgrass [5] = assay: Test Example 4: herbicidal effect by soil treatment (Table 19, symbol F); assay type: in vivo, southern crabgrass (Digitaria ciliaris); conditions: AAH 320 g/ha
Outline: as §4

Italian ryegrass [6] = assay: Test Example 4: herbicidal effect by soil treatment (Table 19, symbol K); assay type: in vivo, Italian ryegrass (Lolium multiflorum); conditions: AAH 320 g/ha
Outline: as §4

velvetleaf = assay: Test Example 4: herbicidal effect by soil treatment (Table 19, symbol M); assay type: in vivo, velvetleaf (Abutilon theophrasti); conditions: AAH 320 g/ha
Outline: as §4

wild oat [7] = assay: Test Example 5: herbicidal effect by foliage application, plastic box (Table 20, symbol I); assay type: in vivo, wild oat (Avena fatua); conditions: foliage application, AAH 320 g/ha, three weeks after application
Outline: as §2

lambsquarters [8] = assay: Test Example 4: herbicidal effect by soil treatment (Table 19, symbol O); assay type: in vivo, lambsquarters (Chenopodium album); conditions: AAH 320 g/ha
Outline: as §4

chickweed = assay: Test Example 4: herbicidal effect by soil treatment (Table 19, symbol P); assay type: in vivo, common chickweed (Stellaria media); conditions: AAH 320 g/ha
Outline: as §4

persian speedwell = assay: Test Example 5: herbicidal effect by foliage application, plastic box (Table 20, symbol R); assay type: in vivo, Persian speedwell (Veronica persica); conditions: foliage application, AAH 320 g/ha, three weeks after application
Outline: as §2

Italian ryegrass [9] = assay: Test Example 5: herbicidal effect by foliage application, plastic box (Table 20, symbol K); assay type: in vivo, Italian ryegrass (Lolium multiflorum); conditions: foliage application, AAH 320 g/ha, three weeks after application
Outline: as §2

wild oat [10] = assay: Test Example 4: herbicidal effect by soil treatment (Table 19, symbol I); assay type: in vivo, wild oat (Avena fatua); conditions: AAH 320 g/ha
Outline: as §4

barnyard grass [11] = assay: Test Example 3: herbicidal effect by foliage application, Wagner pot (Table 18, symbol H); assay type: in vivo, barnyard grass (Echinochloa crus-galli); conditions: 320 g/ha
Outline: as §3

redroot pigweed [12] = assay: Test Example 4: herbicidal effect by soil treatment (Table 19, symbol N); assay type: in vivo, redroot pigweed (Amaranthus retroflexus); conditions: AAH 320 g/ha
Outline: as §4

blackgrass = assay: Test Example 5: herbicidal effect by foliage application, plastic box (Table 20, symbol J); assay type: in vivo, blackgrass (Alopecurus myosuroides); conditions: foliage application, AAH 320 g/ha, three weeks after application
Outline: as §2

Japanese bulrush = assay: Test Example 2: herbicidal activity, application during weed generation under submerged conditions (Table 17, symbol B); assay type: in vivo, Japanese bulrush (Schoenoplectus juncoides); conditions: AAH 320 g/ha; application during weed generation, submerged conditions
Outline: as §1

barnyard grass [13] = assay: Test Example 4: herbicidal effect by soil treatment (Table 19, symbol H); assay type: in vivo, barnyard grass (Echinochloa crus-galli); conditions: AAH 320 g/ha
Outline: as §4

windgrass = assay: Test Example 5: herbicidal effect by foliage application, plastic box (Table 20, symbol L); assay type: in vivo, windgrass (Apera spica-venti); conditions: foliage application, AAH 320 g/ha, three weeks after application
Outline: as §2

Structure (SMILES)	herbicidal effect rating, A: late watergrass (late watergrass)	F: southern crabgrass, herbicidal effect (southern crabgrass [1])	N: redroot pigweed, herbicidal effect (redroot pigweed [2])	herbicidal effect on E (rice flat sedge), rating 0-5 (rice flat sedge)	G: green foxtail, herbicidal effect rating (green foxtail)	H: barnyard grass, herbicidal effect (barnyard grass [3])	O: lambsquarters, herbicidal effect (lambsquarters [4])	F: southern crabgrass, herbicidal effect rating (southern crabgrass [5])	K: Italian ryegrass, herbicidal effect rating (Italian ryegrass [6])	M: velvetleaf, herbicidal effect rating (velvetleaf)	I: wild oat, herbicidal effect (wild oat [7])	O: lambsquarters, herbicidal effect rating (lambsquarters [8])	P: chickweed, herbicidal effect rating (chickweed)	R: persian speedwell, herbicidal effect (persian speedwell)	K: Italian ryegrass, herbicidal effect (Italian ryegrass [9])	I: wild oat, herbicidal effect rating (wild oat [10])	herbicidal effect on H (barnyard grass), rating 0-5 (barnyard grass [11])	N: redroot pigweed, herbicidal effect rating (redroot pigweed [12])	J: blackgrass, herbicidal effect (blackgrass)	herbicidal effect rating, B: Japanese bulrush (Japanese bulrush)	further results
Cc1nn(C)c(=O)c(-c2c(-c3ccc(OCC4CC4(F)F)cc3)sc3ccccc23)c1O (stereo not drawn) [1-138]	0 (Herbicidal rate of 5% or less (almost no effect))	0 (Herbicidal rate of 5% or less (almost no effect))	3 (Herbicidal rate of 40% or more and less than 70%)	5 (Herbicidal rate of 90% or more (almost completely withered))	4 (Herbicidal rate of 70% or more and less than 90%)	5 (Herbicidal rate of 90% or more (almost completely withered))	4 (Herbicidal rate of 70% or more and less than 90%)	0 (Herbicidal rate of 5% or less (almost no effect))	5 (Herbicidal rate of 90% or more (almost completely withered))	3 (Herbicidal rate of 40% or more and less than 70%)	0 (Herbicidal rate of 5% or less (almost no effect))	5 (Herbicidal rate of 90% or more (almost completely withered))	4 (Herbicidal rate of 70% or more and less than 90%)	5 (Herbicidal rate of 90% or more (almost completely withered))	5 (Herbicidal rate of 90% or more (almost completely withered))	0 (Herbicidal rate of 5% or less (almost no effect))	5 (Herbicidal rate of 90% or more (almost completely withered))	5 (Herbicidal rate of 90% or more (almost completely withered))	5 (Herbicidal rate of 90% or more (almost completely withered))	3 (Herbicidal rate of 40% or more and less than 70%)	H: barnyard grass, herbicidal effect rating (barnyard grass [13]): 5 (Herbicidal rate of 90% or more (almost completely withered)); L: windgrass, herbicidal effect (windgrass): 5 (Herbicidal rate of 90% or more (almost completely withered))
CSCCOc1ccc(-c2sc3ccccc3c2-c2c(O)c(C)nn(C)c2=O)cc1 [1-141]	0 (Herbicidal rate of 5% or less (almost no effect))	5 (Herbicidal rate of 90% or more (almost completely withered))	5 (Herbicidal rate of 90% or more (almost completely withered))	5 (Herbicidal rate of 90% or more (almost completely withered))	5 (Herbicidal rate of 90% or more (almost completely withered))	5 (Herbicidal rate of 90% or more (almost completely withered))	5 (Herbicidal rate of 90% or more (almost completely withered))	4 (Herbicidal rate of 70% or more and less than 90%)	5 (Herbicidal rate of 90% or more (almost completely withered))	4 (Herbicidal rate of 70% or more and less than 90%)	5 (Herbicidal rate of 90% or more (almost completely withered))	5 (Herbicidal rate of 90% or more (almost completely withered))	4 (Herbicidal rate of 70% or more and less than 90%)	5 (Herbicidal rate of 90% or more (almost completely withered))	5 (Herbicidal rate of 90% or more (almost completely withered))	0 (Herbicidal rate of 5% or less (almost no effect))	5 (Herbicidal rate of 90% or more (almost completely withered))	5 (Herbicidal rate of 90% or more (almost completely withered))	5 (Herbicidal rate of 90% or more (almost completely withered))	3 (Herbicidal rate of 40% or more and less than 70%)	H: barnyard grass, herbicidal effect rating (barnyard grass [13]): 4 (Herbicidal rate of 70% or more and less than 90%); L: windgrass, herbicidal effect (windgrass): 5 (Herbicidal rate of 90% or more (almost completely withered))
Cc1nn(C)c(=O)c(-c2c(-c3ccc(OCC4CC4)cc3)sc3ccccc23)c1O [1-142]	0 (Herbicidal rate of 5% or less (almost no effect))	1 (Herbicidal rate of 5% or more and less than 20%)	2 (Herbicidal rate of 20% or more and less than 40%)	5 (Herbicidal rate of 90% or more (almost completely withered))	0 (Herbicidal rate of 5% or less (almost no effect))	3 (Herbicidal rate of 40% or more and less than 70%)	3 (Herbicidal rate of 40% or more and less than 70%)	0 (Herbicidal rate of 5% or less (almost no effect))	0 (Herbicidal rate of 5% or less (almost no effect))	3 (Herbicidal rate of 40% or more and less than 70%)	0 (Herbicidal rate of 5% or less (almost no effect))	5 (Herbicidal rate of 90% or more (almost completely withered))	2 (Herbicidal rate of 20% or more and less than 40%)	5 (Herbicidal rate of 90% or more (almost completely withered))	0 (Herbicidal rate of 5% or less (almost no effect))	0 (Herbicidal rate of 5% or less (almost no effect))	3 (Herbicidal rate of 40% or more and less than 70%)	4 (Herbicidal rate of 70% or more and less than 90%)	0 (Herbicidal rate of 5% or less (almost no effect))	2 (Herbicidal rate of 20% or more and less than 40%)	H: barnyard grass, herbicidal effect rating (barnyard grass [13]): 3 (Herbicidal rate of 40% or more and less than 70%); L: windgrass, herbicidal effect (windgrass): 1 (Herbicidal rate of 5% or more and less than 20%)
